From PMC8624133, “10th Trends in Medical Mycology Held on 8 to 11 October 2021, Aberdeen, Scotland, Organized by the European Confederation of Medical Mycology (ECMM)” (Journal of Fungi, 2021)
In brackets after ≈: the same amount, converted by molar mass. Where two headings read alike, the source gives them in different places. Starred links: 1 amine or outer side, 2 acyl side, 3 side chain; linkers in the order of their positions; H or OH if unused. Positions of bridges follow the written chain, without caps; N, C: chain ends. Non-standard residues stand in square brackets, D forms with d. Residues, ends and D or L forms follow the SMILES beside them. *: point of attachment. hTyr(3S-OH,4S-OH,3'-OSO3H) = N[C@H](C(=O)O)[C@H](O)[C@@H](O)c1ccc(O)c(OS(=O)(=O)O)c1; pTerphenylCO(4''-OnC5H11) = CCCCCOc1ccc(-c2ccc(-c3ccc(C(=O)*)cc3)cc2)cc1; Orn(4R-OH,5R-OH) = O=C([C@H](C[C@@H](O)[C@@H](O)N[*:3])N[*:1])[*:2]; hTyr(3S-OH,4S-OH) = N[C@H](C(=O)O)[C@H](O)[C@@H](O)c1ccc(O)cc1; Pro(3S-OH,4S-Me) = C[C@H]1CN[C@H](C(=O)O)[C@H]1O; X1 = CCCCCOc1ccc(-c2cc(-c3ccc(C(=O)*)cc3)no2)cc1; Gln(3R-OH) = NC(=O)C[C@@H](O)[C@H](N)C(=O)O; Hyp = O=C(O)[C@@H]1C[C@@H](O)CN1

Experiments:
[1] = tested on: C. auris clinical strains; test: organism not typed; type: cell-based, Candida auris; conditions: range, 78 strains from patients with COVID-19
C. glabrata isolates = test: Rapid XTT assay based on EUCAST E.Def 7.3; type: cell-based, Candida glabrata; conditions: […], mean ± SD
Candida auris isolates = test: microbe, parasite or virus in culture; type: cell-based; conditions: for categorised as resistant on MIC: CDC guidelines; for MIC: Candidozyma auris, IQR given, read-out: median MIC
[2] = tested on: Rasamsonia argillacea species complex; test: Antifungal susceptibility testing; type: cell-based; conditions: sputum isolate of a CF patient
[3] = tested on: C. albicans and C. glabrata; test: FUNGINOS candidemia survey, susceptibility according to CLSI; type: cell-based; conditions: share of isolates
C. glabrata [4] = test: ARIA surveillance, CLSI M27 broth microdilution; type: cell-based, Candida glabrata; conditions: CLSI M60
Description: (§1) Materials & Methods: Isolates (n = 730) were collected and re-identified by MALDI-TOF or molecular methods. […] Percentage susceptibility (%S) or wild-type (%WT) were calculated according to CLSI breakpoints (CLSI supplement M60) or epidemiological cut-off values (CLSI supplement M59), respectively.

[5] = tested on: Phaeoacremonium parasiticum; test: Antifungal susceptibility testing; type: cell-based
Description: Results: Cultures for bacteria were sterile. Culture on Sabouraud was positive after 5 days of incubation, showing slow growing and initially white colonies. […] Its identification was performed by sequencing the internal transcribed spacer (ITS) region of ribosomal DNA, being the isolate identified as Phaeoacremonium parasiticum (100% homology).

[6] = tested on: Parathyridaria percutanea; test: In vitro antifungal susceptibility; type: cell-based
[7] = tested on: invasive C. glabrata strains; test: YeastOne Sensititre colorimetric broth microdilution; type: cell-based, Candida glabrata; conditions: Nakaseomyces glabratus
Description: Material and Method: Thirty-six clinical isolates of invasive C. glabrata strains were analyzed in this study. Minimum inhibitory concentrations (MICs) were determined using colorimetric broth microdilution (YeastOneSensititre, Trek diagnostics). Genomic DNA was isolated using Qiagen DNA extraction Kit. The FKS1 and FKS2 gene fragment were amplified and PCR products were purified prior to sequencing. Double-strand sequencing of PCR products was performed using Sanger sequencing methodology. Sequences were analyzed with MEGA-6 software to identify specific SNP combination against wild-type sequences of C. glabrata.

C. auris = test: EUCAST EDef 7.3.1 MIC and checkerboard microdilution; type: cell-based, Candida auris
Description: Methods: We studied 22 C. auris isolates obtained from different clinical samples from the Hospital La Fe, Valencia, Spain (eight from blood culture, seven from oropharynx and seven from urine cultures). Candida parapsilosis ATCC 22019 and Candida krusei ATCC 6258 were used as quality controls. The minimum inhibitory concentration (MIC) was determined according to the European Committee on Antibiotic Susceptibility Testing (EUCAST) EDef 7.3.1 document. The interaction between citral and the rest of antifungal drugs was assessed by a checkerboard microdilution method. […] The in vitro interaction of the drug combinations was interpreted in terms of the fractional inhibitory concentration index (FICI) as follows: FICI < 1, synergistic; FICI equal to 1, additive; and FICI > 1, indifferent or antagonistic.

C. guilliermondii = test: EUCAST E. Def 7.3.2 microdilution; type: cell-based, Candida guilliermondii; conditions: n = 62; for MIC50 / MIC90: Meyerozyma guilliermondii
C. fermentati = test: EUCAST E. Def 7.3.2 microdilution; type: cell-based, Candida fermentati; conditions: n = 2
Aspergillus tubingensis = test: EUCAST susceptibility; type: cell-based; conditions: read-out: MIC
Description: The fungus was identified as Aspergillus niger and liposomal amphotericine B was switched to anidulafungin pending susceptibility testing as the patient had pre-existing […] (eGFR CKD-EPI 40 mL/min/1.73 m²). […] Despite increasing the anidulafungin dosage to 200 mg daily and adequate voriconazol levels, serum galactomannan levels remained elevated (index 2.1 at discharge). […] Since no extracardiac sources were found and the patient did well clinically, they were discharched. Anidulafungin was switched to caspofungin to facilitate ongoing IV treatment in the outpatient setting. […] The patient died shortly after. Obduction was not performed.

C. krusei [8] = test: ARIA surveillance, CLSI M27 broth microdilution; type: cell-based, Candida krusei
Description: as §1

Candida albicans (CA) = test: Post-antifungal effect (PAFE); type: cell-based; conditions: CA clinical isolate; all concentrations (1×, 4×, 16× bMIC), 1 h exposure
Description: (§2) Materials &Methods: Six Candida spp. […] For PAFE determinations, antifungal concentrations of 1×, 4×, and 16× bMiC were used. A starting inoculum of 1–[…] CFU/mLwas added to RPMl with the antifungal agent. Post 1 h exposure, cells were washed 3 times and resuspended in 10 mL of pre-warmed RPMl. Colony counts were performed at to, 1 h before and after final washt t2, t4, t8, t12, t24 and t48 h. PAFE was calculated as the difference in time required for isolates to rrow1-logio following the final cell wash compared to the growth control.

C. glabrata (CGLA) = test: Post-antifungal effect (PAFE); type: cell-based, Candida glabrata
Description: as §2

C. parapsilosis (CPRP) = test: Post-antifungal effect (PAFE); type: cell-based, Candida parapsilosis
Description: as §2

C. albicans = type: cell-based, Candida albicans
C. parapsilosis = type: cell-based, Candida parapsilosis
C. glabrata [9] = type: cell-based, Candida glabrata
C. tropicalis = type: cell-based, Candida tropicalis
C. krusei [10] = type: cell-based, Candida krusei
Other species of Candida = type: cell-based, Candida spp.
[11] = 36 clinical isolates, read-out: median (Min–Max) MIC

Compound: CCCCCOc1ccc(-c2ccc(-c3ccc(C(=O)N[C@H]4C[C@@H](O)[C@@H](O)NC(=O)[C@@H]5[C@@H](O)[C@@H](C)CN5C(=O)[C@H]([C@@H](C)O)NC(=O)[C@H]([C@H](O)[C@@H](O)c5ccc(O)cc5)NC(=O)[C@@H]5C[C@@H](O)CN5C(=O)[C@H]([C@@H](C)O)NC4=O)cc3)cc2)cc1 [anidulafungin] ({pTerphenylCO(4''-OnC5H11)}-[Orn(4R-OH,5R-OH)]T[Hyp][hTyr(3S-OH,4S-OH)]T[Pro(3S-OH,4S-Me)]; lactam 1-C)
- MIC [1]: 0.015 to 8 µg/mL (≈ 0.0132 to 7.02 µM)
- XTT-absorbance in drug-treated wells (C. glabrata isolates; drug-free 0.37 ± 0.04): 0.11 ± 0.03
- XTT-absorbance in drug-treated wells (C. glabrata isolates; drug-free 0.39 ± 0.05): 0.25 ± 0.06
- categorised as resistant on MIC (Candida auris isolates): none
- MIC (Candida auris isolates): 0.25 µg/mL (≈ 0.219 µM)
- minimal inhibitory concentrations (MIC) [2]: low MIC
- non-susceptibility [3]: 2%
- susceptibility (C. glabrata [4]; Italy): 15.8%
- susceptibility (C. glabrata [4]; Panama): 91.7%
- minimal inhibitory concentrations (MIC), in words [5]: higher
- in vitro susceptibility category [6]: resistance
- MIC [7, 11]: 0.06 µg/mL
- MIC ([7]; isolate with FKS2 I661T): 0.06 µg/mL
- MIC of anidulafungin in combination with citral (C. auris): 0.016 µg/mL
- MIC (C. auris; Candidozyma auris, 22 clinical isolates): 0.125 µg/mL
- MIC50 (C. guilliermondii): 0.25 µg/mL (≈ 0.219 µM)
- MIC90 (C. guilliermondii): 0.5 µg/mL (≈ 0.438 µM)
- GM (C. guilliermondii): 0.304 µg/mL
- MIC Range (C. guilliermondii): 0.008 to 1 µg/mL
- GM (C. fermentati): 0.25 µg/mL
- MIC Range (C. fermentati): 0.25 µg/mL (≈ 0.219 µM)
- MIC (Aspergillus tubingensis): 0.03 µg/mL (≈ 0.0263 µM)

Compound: CCCCCOc1ccc(-c2cc(-c3ccc(C(=O)N[C@H]4C[C@@H](O)[C@@H](O)NC(=O)[C@@H]5[C@@H](O)[C@@H](C)CN5C(=O)[C@H]([C@H](O)CC(N)=O)NC(=O)[C@H]([C@H](O)[C@@H](O)c5ccc(O)c(OS(=O)(=O)O)c5)NC(=O)[C@@H]5C[C@@H](O)CN5C(=O)[C@H]([C@@H](C)O)NC4=O)cc3)no2)cc1 [micafungin] (X1-[Orn(4R-OH,5R-OH)]T[Hyp][hTyr(3S-OH,4S-OH,3'-OSO3H)][Gln(3R-OH)][Pro(3S-OH,4S-Me)]; lactam 1-C)
- MIC [1]: 0.06 to 1 µg/mL (≈ 0.0472 to 0.787 µM)
- categorised as resistant on MIC (Candida auris isolates): 1.4%
- MIC (Candida auris isolates): 0.12 µg/mL (≈ 0.0945 µM)
- non-susceptibility [3]: 2%
- susceptibility (C. krusei [8]; Argentina, Australia, Italy and Taiwan): 100%
- susceptibility (C. krusei [8]; USA): 73.3%
- MIC [7, 11]: 0.015 µg/mL
- MIC ([7]; isolate with FKS2 I661T): 0.015 µg/mL
- PAFE (Candida albicans (CA)): > 14.9 h
- PAFE (C. glabrata (CGLA); CGLA #3 isolate, 1× bMIC): 20.4 h
- PAFE (C. glabrata (CGLA); both CGLA strains, all concentrations): > 40 h
- PAFE (C. parapsilosis (CPRP); CPRP ATCC 22019, 1× and 4× bMIC): no micafungin PAFE was observed
- PAFE (C. parapsilosis (CPRP); CPRP ATCC 22019, 16× bMIC): 1.8 h
- PAFE (C. parapsilosis (CPRP); CPRP clinical isolate, 1× bMIC): 1.6 h
- PAFE (C. parapsilosis (CPRP); CPRP clinical isolate, 4× bMIC): 7.4 h
- PAFE (C. parapsilosis (CPRP); CPRP clinical isolate, 16× bMIC): 31.3 h
- I (intermediate) isolates, n (%) (C. albicans): 1 (0.7%)
- R (resistant) isolates, n (%) (C. albicans): 1 (0.7%)
- S (sensitive) isolates, n (%) (C. albicans): 136 (98.6%)
- I (intermediate) isolates, n (%) (C. parapsilosis): 0 (0%)
- R (resistant) isolates, n (%) (C. parapsilosis): 0 (0%)
- S (sensitive) isolates, n (%) (C. parapsilosis): 132 (100%)
- I (intermediate) isolates, n (%) (C. glabrata [9]): 0 (0%)
- R (resistant) isolates, n (%) (C. glabrata [9]): 0 (0%)
- S (sensitive) isolates, n (%) (C. glabrata [9]): 55 (100%)
- I (intermediate) isolates, n (%) (C. tropicalis): 0 (0%)
- R (resistant) isolates, n (%) (C. tropicalis): 0 (0%)
- S (sensitive) isolates, n (%) (C. tropicalis): 44 (100%)
- S (sensitive) isolates, n (%) (C. krusei [10]): 3 (100%)
- I (intermediate) isolates, n (%) (Other species of Candida): 0 (0%)
- R (resistant) isolates, n (%) (Other species of Candida): 0 (0%)
- S (sensitive) isolates, n (%) (Other species of Candida): 18 (100%)
- MIC50 (C. guilliermondii): 0.25 µg/mL (≈ 0.197 µM)
- MIC90 (C. guilliermondii): 0.5 µg/mL (≈ 0.394 µM)
- GM (C. guilliermondii): 0.228 µg/mL
- MIC Range (C. guilliermondii): 0.008 to 0.5 µg/mL
- GM (C. fermentati): 0.125 µg/mL
- MIC Range (C. fermentati): 0.125 µg/mL (≈ 0.0984 µM)
